Test results reported in patent US11339185B2, “Cyclic dinucleotides as anticancer agents” (Bristol-Myers Squibb Company, priority 2018, dated 2022).
Read-outs that look alike come from different tables or passages of the source.

Tests used:
[1] = biological target: T1, STING AQ: His-TVMV-S-hSTING(155-341)-G230A-R293Q (Homo sapiens, UniProt Q86WV6, G230A/H232R/R293Q); assay: STING HTRF binding assay (time resolved FRET competition), STING AQ; settings: 20 nM His-tagged STING AQ cytoplasmic domain, 40 nM fluorescein-labeled cGAMP analog probe, one hour; read-out: HTRF Binding Assays IC50 (μM) AQ
T1 construct: STING AQ: His-TVMV-S-hSTING(155-341)-G230A-R293Q
Method: (§1) A time resolved FRET-based competition binding assay was used to assess test article binding to STING WT and STING AQ. His-tagged STING cytoplasmic domain (WT or AQ) at a concentration of 20 nM was incubated with 2.5 nM Tb-labeled anti-His antibody, test compound, and fluorescein-labeled cGAMP analog probe (BioLog cat. no. C195) at a concentration of 200 nM (STING WT) or 40 nM (STING AQ) in PBS containing 0.005% Tween-20 and 0.1% BSA for one hour. Fluorescence at 495 nm and 520 nm was measured using an EnVision microplate reader to quantify FRET between Tb-labeled anti-His antibody and fluorescein-labeled probe. Background was defined as the signal obtained in the absence of STING protein, and background subtracted FRET ratios were normalized to the maximum signal obtained in the absence of test compound. These values were converted to a percent inhibition. Percent inhibition was determined for test compounds at 11 concentrations. The IC50, defined as the concentration of competing test compound needed to reduce specific binding of the probe by 50%, was calculated using the 4 parameter logistic equation to fit the data

[2] = biological target: T2, STING WT: His-TVMV-S-hSTING(155-341)-H232R (Homo sapiens, UniProt Q86WV6, H232R); assay: STING HTRF binding assay (time resolved FRET competition), STING WT; settings: 20 nM His-tagged STING WT cytoplasmic domain, 200 nM fluorescein-labeled cGAMP analog probe, one hour; read-out: HTRF Binding Assays IC50 (μM) WT
T2 construct: STING WT: His-TVMV-S-hSTING(155-341)-H232R
Method: as §1

[3] = tested on: THP1-Dual cells, NF-κB pathway; assay: STING THP1 Reporter Assay, NF-κB pathway (SEAP, QUANTI-Blue); type: cell-based; settings: 10% human plasma, SEAP readout (OD620), 100% activation = 100 μM cGAMP, read-out: THP1 Reporter Assays EC50 (μM) NFkB
From the text: (§2) THP1-Dual™ cells were derived from the human THP-1 monocyte cell line by stable integration of two inducible reporter constructs. To this end, THP1-Dual™ cells allow the simultaneous study of the NF-κB pathway, by monitoring the activity of SEAP, and the IRF pathway by assessing the activity of a secreted luciferase (Lucia). Both reporter proteins are readily measurable in the cell culture supernatant when using QUANTI-Blue™, a SEAP detection reagent, and QUANTI-Luc™, a luciferase detection reagent.
(§3) THP1-Dual™ cells induce the activation of NF-κB in response to STING agonists. They also trigger the IRF pathway upon stimulation with STING agonists, such as cGAMP. Here, the THP-1-Dual cells were used to assess STING binders for function on the cellular level.
(§4) Serial dilutions of compounds in DMSO were added to low volume 384 well plates at 100 nl/well using an ECHO acoustic dispenser (Labcyte, model 550) to achieve final starting concentration of 100 μM in cell suspension. THP-1 Dual™ STING reporter cells (Invivogen, Dual cells cat #THPD-nfis) were added to the plates with compounds at 15,000 cells in 10 μL per well in RPMI media (Gibco, cat #11875) containing 10% human plasma in a low volume 384-well black wall clear bottom tissue culture plate (Corning, cat #3542) for SEAP assay and low volume solid white plate (Corning, cat #3826) for luciferase assay. One column of the plate was reserved for treatment with cGAMP at 100 μM for 100% activation calculation and one column for no treatment (DMSO only) for baseline activation. Plates were then incubated in 37 OC incubator at 5% CO2 for 20 hours.
(§5) In the SEAP assay, 5 μl of 2× QuantiBlue (Invivogen, cat #Rep-qb2) is added to 384 well black plates seeded with THP1 cells and incubated at 37° C. for 2 hours. Plates were read on the Envision (Perkin Elmer) at 620 nm wavelength (OD620). In the luciferase assay, 5 μl of Quantiluc (Invivogen, Rep-qlc2) is added to white 384 well plates seeded with THP1 cells and read at 5 minutes on the Envision (Perkin Elmer) using a luminescence protocol (RLU). For both cell lines, 100% activation was determined by value (RLU) of THP-1 Dual STING cells stimulated with 100 μM cGAMP (Invivogen, cat #TLRL-NACGA23-5).

[4] = tested on: THP1-Dual cells, IRF pathway (IRF3); assay: STING THP1 Reporter Assay, IRF pathway (secreted Lucia luciferase, QUANTI-Luc); type: cell-based; settings: 10% human plasma, luciferase readout, 100% activation = 100 μM cGAMP, read-out: THP1 Reporter Assays EC50 (μM) IRF3
From the text: as §2, §3, §4, §5

T2 sequence (Q86WV6 with tags, fused parts or gaps H232R): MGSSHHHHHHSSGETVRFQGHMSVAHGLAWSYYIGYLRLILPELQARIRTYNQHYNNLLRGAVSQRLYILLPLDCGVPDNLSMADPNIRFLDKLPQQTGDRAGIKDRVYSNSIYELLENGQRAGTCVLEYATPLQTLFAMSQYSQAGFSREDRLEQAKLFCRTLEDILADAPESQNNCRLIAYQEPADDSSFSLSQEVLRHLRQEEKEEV
T1 sequence (Q86WV6 with tags, fused parts or gaps G230A/H232R/R293Q): as the sequence (Q86WV6 with tags, fused parts or gaps H232R) above, with G99A, R162Q counted along it

IC50 [1] | IC50 [2] | EC50 ([3]; 20 hours) | EC50 ([4]; 20 hours) | EC50 ([3]; Homo sapiens, THP1-Dual, 20 h) | EC50 ([4]; Homo sapiens, THP1-Dual, 20 h) | Structure (SMILES)
0.1 µM | 5.68 µM |  | > 100 µM | > 100 µM |  | Nc1ncnc2c1ncn2[C@@H]1O[C@@H]2COP(=O)(S)OC[C@@H]3[C@@H](COP(=O)(S)O[C@H]2[C@H]1F)C[C@H]3n1cnc2c(=O)[nH]cnc21 (single isomer, unassigned) [Example 22-1]
0.04 µM | 2.71 µM | > 100 µM | > 100 µM |  |  | Nc1ncnc2c1ncn2[C@@H]1O[C@@H]2COP(=O)(S)OC[C@@H]3[C@@H](COP(=O)(S)O[C@H]2[C@H]1F)C[C@H]3n1cnc2c(=O)[nH]cnc21 (single isomer, unassigned) [Example 22-3]
0.01 µM | 0.12 µM | 91.7 µM | 13 µM |  |  | Nc1ncnc2c1ncn2[C@@H]1O[C@@H]2COP(=O)(S)OC[C@@H]3[C@@H](COP(=O)(S)O[C@H]2[C@H]1F)C[C@H]3n1cnc2c(=O)[nH]cnc21 (single isomer, unassigned) [Example 22-4]

The next lines start with the compound.

Structure (SMILES) | IC50 [1] | IC50 [2] | EC50 ([3]; 20 hours) | EC50 ([4]; 20 hours) | EC50 ([3]; Homo sapiens, THP1-Dual, 20 h) | EC50 ([4]; Homo sapiens, THP1-Dual, 20 h)
Nc1ncnc2c1ncn2[C@@H]1O[C@@H]2COP(=O)(S)OC[C@@H]3[C@@H](COP(=O)(S)O[C@H]2[C@H]1F)C[C@H]3n1cnc2c(=O)n3cnnc3[nH]c21 (single isomer, unassigned) [Example 21-2] | 0.2 µM | 6.97 µM | > 100 µM | > 100 µM |  | 
Nc1ncnc2c1ncn2[C@@H]1O[C@@H]2COP(=O)(S)OC[C@@H]3[C@@H](COP(=O)(S)O[C@H]2[C@H]1F)C[C@H]3n1cnc2c(=O)n3nnnc3[nH]c21 (single isomer, unassigned) [Example 23] | 0.07 µM | 4.96 µM |  |  | 92.2 µM | > 100 µM
Nc1ncnc2c1ncn2[C@@H]1C[C@@H]2COP(=O)(S)O[C@@H]3[C@H](F)[C@@H](COP(=O)(O)OC[C@H]21)O[C@H]3n1cnc2c(=O)n3ccnc3[nH]c21 (stereo partly drawn) [Example 7, 3-[(1S,6S,8R,9R,15R,17R,18R)-8-(6-amino-9H-purin-9-yl)-18-fluoro-3,12-dihydroxy-12-oxo-3-sulfanylidene-2,4,11,13,16-pentaoxa-3λ^5,12λ^5-diphosphatricyclo[13.2.1.0^6,9]octadecan-17-yl]-3H,5H,9H-imidazo[1,2-a]purin-9-one] | 0.002 µM | 0.12 µM |  |  | 11.5 µM | 3.01 µM
NC(=O)c1cc([C@@H]2C[C@@H]3COP(=O)(O)O[C@H]4[C@@H](F)[C@H](n5cnc6c(N)ncnc65)O[C@@H]4COP(=O)(O)OC[C@H]32)ccn1 [Example 12, 4-[(1R,6S,8R,9S,15R,17R,18R)-17-(6-amino-9H-purin-9-yl)-18-fluoro-3,12-dihydroxy-3,12-dioxo-2,4,11,13,16-pentaoxa-3λ^5,12λ^5-diphosphatricyclo[13.3.0.0^6,9]octadecan-8-yl]pyridine-2-carboxamide] | 0.35 µM | 31.2 µM |  |  | > 100 µM | > 100 µM
Nc1ncnc2c1ncn2[C@@H]1C[C@@H]2COP(=O)(O)O[C@H]3[C@@H](F)[C@H](n4cnc5c4ncn4ccnc54)O[C@@H]3COP(=O)(O)OC[C@H]21 [Example 16, (1R,6S,8R,9R,15R,17R,18R)-8-(6-amino-9H-purin-9-yl)-18-fluoro-3,12-dihydroxy-17-{3H-imidazo[2,1-f]purin-3-yl}-2,4,11,13,16-pentaoxa-3λ^5,12λ^5-diphosphatricyclo[13.3.0.0^6,9]octa-decane-3,12-dione] | 0.02 µM | 4.66 µM |  |  | 72.8 µM | 23.9 µM
NC(=O)c1cc([C@@H]2C[C@@H]3COP(=O)(S)O[C@H]4[C@@H](F)[C@H](n5cnc6c5ncn5ccnc65)O[C@@H]4COP(=O)(S)OC[C@H]32)ccn1 (stereo partly drawn) [Example 19, 4-[(1R,6S,8R,9S,15R,17R,18R)-18-fluoro-17-{3H-imidazo[2,1-f]purin-3-yl}-3,12-dioxo-3,12-disulfanyl-2,4,11,13,16-pentaoxa-3λ^5,12λ^5-diphosphatricyclo[13.3.0.0^6,9]octa-decan-8-yl]pyridine-2-carboxamide] | 0.01 µM | 0.01 µM |  |  | 2.38 µM | 0.97 µM
